Activity data for twelve compounds are collected here from ChEMBL document CHEMBL1777793, “Synthesis of biotinylated muramyl tripeptides with NOD2-stimulating activity” (Bioorg Med Chem Lett, 2011).

Activity calls are given as the source filed them. The calls are words filed in the database; no cut-off is given here.

For the assay, the target named is Nucleotide-binding oligomerization domain-containing protein 2 (Homo sapiens) (UniProt Q9HC29). Kind of assay: Activation of NOD2 expressed in HEK293 cells assessed as increase in IL8 secretion measured at 0.01 to 0.7 uM after 18 hrs by ELISA. It counts as cell-based.
Nucleotide-binding oligomerization domain-containing protein 2 (Homo sapiens), sequence (Q9HC29 whole entry, the tested form may be a part): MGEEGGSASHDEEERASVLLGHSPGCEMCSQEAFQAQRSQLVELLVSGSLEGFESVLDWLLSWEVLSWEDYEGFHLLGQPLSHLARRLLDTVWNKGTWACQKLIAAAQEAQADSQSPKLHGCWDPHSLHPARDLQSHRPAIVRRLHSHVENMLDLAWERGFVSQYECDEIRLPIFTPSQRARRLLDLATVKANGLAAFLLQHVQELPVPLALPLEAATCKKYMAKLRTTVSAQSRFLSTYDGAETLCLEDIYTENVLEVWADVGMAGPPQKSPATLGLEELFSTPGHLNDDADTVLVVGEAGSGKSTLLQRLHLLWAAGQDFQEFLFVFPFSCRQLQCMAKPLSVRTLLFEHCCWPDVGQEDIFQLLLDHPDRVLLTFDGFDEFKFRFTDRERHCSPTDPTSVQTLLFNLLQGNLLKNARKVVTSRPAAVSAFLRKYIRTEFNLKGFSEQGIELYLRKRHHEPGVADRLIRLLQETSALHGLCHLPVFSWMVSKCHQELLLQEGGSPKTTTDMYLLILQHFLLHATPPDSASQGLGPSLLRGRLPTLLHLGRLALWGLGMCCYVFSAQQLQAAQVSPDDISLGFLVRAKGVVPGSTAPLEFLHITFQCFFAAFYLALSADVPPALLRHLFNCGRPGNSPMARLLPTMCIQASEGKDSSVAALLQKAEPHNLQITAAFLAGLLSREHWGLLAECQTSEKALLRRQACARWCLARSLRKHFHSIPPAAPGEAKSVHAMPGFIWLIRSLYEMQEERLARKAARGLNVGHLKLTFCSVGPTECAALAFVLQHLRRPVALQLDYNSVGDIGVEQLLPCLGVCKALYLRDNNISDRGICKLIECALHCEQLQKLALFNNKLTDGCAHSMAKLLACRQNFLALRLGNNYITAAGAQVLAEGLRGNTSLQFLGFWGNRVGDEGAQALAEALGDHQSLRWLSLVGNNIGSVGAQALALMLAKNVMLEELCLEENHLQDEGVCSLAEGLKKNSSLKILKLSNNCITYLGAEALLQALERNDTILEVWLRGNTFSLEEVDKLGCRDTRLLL
With `CC(=O)N[C@H]1C(O)O[C@H](CO)[C@@H](O)[C@@H]1O[C@H](C)C(=O)N[C@@H](C)C(=O)N[C@H](CCC(=O)N[C@@H](CCCCN)C(=O)O)C(=O)O` (some centres not stated), the outcome was Active. The result for `CC(=O)N[C@H]1[C@@H](OP(=O)(O)OP(=O)(O)OC[C@H]2O[C@@H](n3ccc(=O)[nH]c3=O)[C@H](O)[C@@H]2O)O[C@H](CO)[C@@H](O)[C@@H]1O[C@H](C)C(=O)N[C@@H](C)C(=O)N[C@H](CCC(=O)N[C@@H](CCC[C@@H](N)C(=O)O)C(=O)O)C(=O)O` reads “Active”.

Regarding `CC(=O)N[C@H]1C(O)O[C@H](COC(=O)CCCCCNC(=O)CCCCCNC(=O)CCCCCNC(=O)CCCC[C@@H]2SC[C@@H]3NC(=O)N[C@@H]32)[C@@H](O)[C@@H]1O[C@H](C)C(=O)N[C@@H](C)C(=O)N[C@H](CCC(=O)O)C(N)=O` (some centres not stated), the outcome was Active.

On to `CC(=O)N[C@H]1C(O)O[C@H](CO)[C@@H](O)[C@@H]1O[C@H](C)C(=O)N[C@@H](C)C(=O)N[C@H](CCC(=O)O)C(N)=O` (some centres not stated), for which the outcome was Active. Take `CC(=O)N[C@H]1C(O)O[C@H](CO)[C@@H](O)[C@@H]1O[C@H](C)C(=O)N[C@@H](C)C(=O)N[C@H](CCC(=O)N[C@@H](CCCCNC(=O)CCCC[C@@H]1SC[C@@H]2NC(=O)N[C@@H]21)C(=O)O)C(=O)O` (some centres not stated): the result was Active. As for `CC(=O)N[C@H]1C(O)O[C@H](CO)[C@@H](O)[C@@H]1O[C@H](C)C(=O)N[C@@H](C)C(=O)N[C@H](CCC(=O)N[C@@H](CCC[C@@H](NC(=O)CCCC[C@@H]1SC[C@@H]2NC(=O)N[C@@H]21)C(=O)O)C(=O)O)C(=O)O` (some centres not stated), the result was inactive. The result for `CC(=O)N[C@H]1[C@@H](OP(=O)(O)OP(=O)(O)OC[C@H]2O[C@@H](n3ccc(=O)[nH]c3=O)[C@H](O)[C@@H]2O)O[C@H](CO)[C@@H](O)[C@@H]1O[C@H](C)C(=O)N[C@@H](C)C(=O)N[C@H](CCC(=O)N[C@@H](CCCCNC(=O)CCCC[C@@H]1SC[C@@H]2NC(=O)N[C@@H]21)C(=O)O)C(=O)O` reads “Active”. `CC(=O)N[C@H]1[C@@H](OP(=O)(O)OP(=O)(O)OC[C@H]2O[C@@H](n3ccc(=O)[nH]c3=O)[C@H](O)[C@@H]2O)O[C@H](CO)[C@@H](O)[C@@H]1O[C@H](C)C(=O)N[C@@H](C)C(=O)N[C@H](CCC(=O)N[C@@H](CCCCN)C(=O)O)C(=O)O`: the result was Active. To `CC(=O)N[C@H]1[C@@H](OP(=O)(O)OP(=O)(O)OC[C@H]2O[C@@H](n3ccc(=O)[nH]c3=O)[C@H](O)[C@@H]2O)O[C@H](CO)[C@@H](O)[C@@H]1O[C@H](C)C(=O)N[C@@H](C)C(=O)N[C@H](CCC(=O)N[C@@H](CCCCNC(=O)CCCCCNC(=O)CCCCCNC(=O)CCCC[C@@H]1SC[C@@H]2NC(=O)N[C@@H]21)C(=O)O)C(=O)O` belongs “Active”; to `CC(=O)N[C@H]1C(O)O[C@H](CO)[C@@H](O)[C@@H]1O[C@H](C)C(=O)N[C@@H](C)C(=O)N[C@H](CCC(=O)N[C@@H](CCC[C@@H](N)C(=O)O)C(=O)O)C(=O)O` (some centres not stated), “inactive”; to `CC(=O)N[C@H]1C(O)O[C@H](CO)[C@@H](O)[C@@H]1O[C@H](C)C(=O)N[C@@H](C)C(=O)N[C@H](CCC(=O)N[C@@H](CCCCNC(=O)CCCCCNC(=O)CCCCCNC(=O)CCCC[C@@H]1SC[C@@H]2NC(=O)N[C@@H]21)C(=O)O)C(=O)O` (some centres not stated), “Active”.

Consider `CC(=O)N[C@H]1[C@@H](OP(=O)(O)OP(=O)(O)OC[C@H]2O[C@@H](n3ccc(=O)[nH]c3=O)[C@H](O)[C@@H]2O)O[C@H](CO)[C@@H](O)[C@@H]1O[C@H](C)C(=O)N[C@@H](C)C(=O)N[C@H](CCC(=O)N[C@@H](CCC[C@@H](NC(=O)CCCC[C@@H]1SC[C@@H]2NC(=O)N[C@@H]21)C(=O)O)C(=O)O)C(=O)O`, for which the outcome was Active.
